One data set concerns the target T1, G9a (Homo sapiens, UniProt Q96KQ7).
T1 construct: purchased BPS Bioscience 52051
T1 sequence (Q96KQ7 1-1210): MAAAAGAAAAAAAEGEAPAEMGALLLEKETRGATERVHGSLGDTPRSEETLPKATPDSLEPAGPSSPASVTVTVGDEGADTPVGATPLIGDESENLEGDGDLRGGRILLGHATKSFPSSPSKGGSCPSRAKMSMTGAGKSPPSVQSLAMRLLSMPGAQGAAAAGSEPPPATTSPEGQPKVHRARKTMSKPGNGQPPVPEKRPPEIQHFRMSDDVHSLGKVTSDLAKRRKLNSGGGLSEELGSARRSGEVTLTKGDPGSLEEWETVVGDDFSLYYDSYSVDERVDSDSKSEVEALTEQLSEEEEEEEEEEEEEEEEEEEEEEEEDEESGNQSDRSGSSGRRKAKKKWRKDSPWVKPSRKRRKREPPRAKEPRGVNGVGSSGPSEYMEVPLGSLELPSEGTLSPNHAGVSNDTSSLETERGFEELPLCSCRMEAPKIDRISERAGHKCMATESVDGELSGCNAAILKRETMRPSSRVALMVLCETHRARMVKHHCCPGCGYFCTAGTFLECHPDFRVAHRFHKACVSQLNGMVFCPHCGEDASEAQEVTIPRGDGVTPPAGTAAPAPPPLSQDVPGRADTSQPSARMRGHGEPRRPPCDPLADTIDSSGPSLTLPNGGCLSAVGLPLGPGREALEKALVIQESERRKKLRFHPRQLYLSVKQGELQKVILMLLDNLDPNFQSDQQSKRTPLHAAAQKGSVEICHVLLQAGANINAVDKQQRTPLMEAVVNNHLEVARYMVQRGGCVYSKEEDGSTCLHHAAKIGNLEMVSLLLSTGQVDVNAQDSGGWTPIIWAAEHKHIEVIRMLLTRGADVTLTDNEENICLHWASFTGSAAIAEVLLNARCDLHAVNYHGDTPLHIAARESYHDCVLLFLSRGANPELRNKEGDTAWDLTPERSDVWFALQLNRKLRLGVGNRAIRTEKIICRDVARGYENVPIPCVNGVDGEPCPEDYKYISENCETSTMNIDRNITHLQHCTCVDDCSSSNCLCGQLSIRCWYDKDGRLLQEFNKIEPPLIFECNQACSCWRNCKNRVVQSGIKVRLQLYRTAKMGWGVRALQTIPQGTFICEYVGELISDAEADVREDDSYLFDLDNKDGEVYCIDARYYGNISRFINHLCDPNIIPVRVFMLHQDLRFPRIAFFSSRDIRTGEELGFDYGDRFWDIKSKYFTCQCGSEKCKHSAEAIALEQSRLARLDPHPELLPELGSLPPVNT
As to the kind of experiment: G9a Homogeneous Assay Kit (AlphaLISA) G9a inhibition. In kind it is biochemical. Particulars: for IC50: AlphaLISA, 100 μM SAM and peptide substrate.

A further data set relates to C. elegans strain CL2006. Description: Locomotion assay (motor index). In kind it is in vivo, Caenorhabditis elegans. Particulars: CL2006 worms, 0.001-1 μM, chronic treatment, compared with UNC0638. As to the method:
One of the best‐characterized transgenic AD strains in C. elegans is the CL2006 strain, which contains the Punc‐54::Aβ1–42 transgene, showing a progressive adult‐onset paralysis. Then, to establish a dose‐response profile, the pharmacological impact of G9a inhibition was evaluated in a locomotion assay with this C. elegans strain. We performed a motility assay where animals were placed in the center of a seeded plate and allowed to explore the environment freely. […] N2 (WT), and CL2006 strain were treated with dimethyl sulfoxide (DMSO) 1 %, used as a vehicle, which should not cause a relevant locomotor defective phenotype. […] The motor index for each condition was calculated using the motor performance of Bristol (N2) (WT, 100 %) and the transgenic AD strain (CL2006, 0 %) animals as reference.
Locomotion assay of G9a inhibitors was assessed to obtain dose‐response profile, evaluating the impact of the pharmacology treatment in motor dysfunction presented by the transgenic strains CL2006. Nematodes were synchronized by alkaline hypochlorite treatment, and drug assay was performed as described above, except for the OP50 bacteria OD595 adjusted to 0.9, and the duration of the treatment was 5 days. N2 (WT), and the transgenic strain CL2006 were treated in liquid media for 4 days at 20 °C and 180 rpm, starting at the L1 stage. On day 5 of age, worms were transferred from the 96‐well plates onto an unseeded NGM plate for 45 minutes before starting the trial, allowing the plates to dry and worms. Locomotion assays were performed in 30 mm NGM plates, in which the whole surface of the plate was covered by OP50. 5 to 10 adult nematodes were placed in the center of a circle (with 1 cm of diameter) in the seeded 30 mm NGM plates. After 1 min, the number of animals remaining inside the circle was scored as a locomotor defect. Motor behavior assays were run in triplicates (n=3), with a total of at least 100 animals tested per compound concentration. Motor index establishes a score where treated animals showing the same motor defect as CL2006 have an index of 0 %. […] All the results shown in the figures are calculated using the following formula: Motorindex(%)=(LDCL2006vehicle-LDCL2006drug)/(LDCL2006vehicle-LDWTvehicle)×100 LD=locomotiondefective

The nature of another data set: PAMPA‐BBB assay. Particulars: pig; PAMPA‐BBB, PBS:EtOH (70 : 30); read-out: Permeability (Pe) experimental value. The class given is in vitro ADME.

A word on the remaining activity: it is the signal under treatment as a percentage of the control signal. The term IC50 denotes the concentration needed to halve the response being measured.

Procedure for G9a: The percentages of G9a activity for the 10 selected molecules were determined at 100 μM S‐adenosylmethionine (SAM) and peptide substrate using AlphaLISA® technology. These percentages were used to calculate the IC50.
G9a inhibitors were serially diluted between 5 nM and 0.001 nM in 100 % DMSO (Sigma, St. Louis, USA). Then, respective concentrations were subsequently diluted in MilliQ purified water to reach a final concentration ranging between 50 and 0.001 μM in 1 % DMSO in well.
Briefly, a sample containing the G9a enzyme is incubated with the biotinylated substrate plus inhibitor solution for two hours. Next, acceptor beads and primary antibody is added, followed by donor beads. Finally, the Alpha‐counts were read using an AlphaScreen microplate reader. The experiment was run per triplicate. G9aactivity(%)=(C-Cb)/(Ct-Cb)x100
Ct=The chemiluminescence reading in the absence of the compound. The data set here is defined as 100 % activity in the absence of the compound.
Cb=The chemiluminescence reading in absence of enzyme. The data set here is defined as 0 % activity in the absence of the enzyme.
C=The chemiluminescence reading in the presence of the compound.
Data analysis was conducted using GraphPad Prism ver. 9 statistical software. The statistical outliers were identified with Grubb's test and excluded from the analysis. Group comparisons were carried out with a One‐way Analysis of variance (ANOVA), followed by the Dunnett post hoc test. In some cases, comparison between groups was also performed by unpaired t‐test or One‐way ANOVA, followed by Fisher's LSD post hoc test. For the calculation of IC50, non‐linear regressions were performed. […] Values are shown as the mean ± Standard error of the mean (SEM) of at least n=3. Statistical significance was considered when p values were <0.05.
Procedure for PAMPA‐BBB assay: To evaluate the brain penetration of the different compounds, a parallel artificial membrane permeation assay for BBB was used, following the method described by Di et al..[33] The in vitro Pe of fourteen commercial drugs through lipid extract of porcine brain membrane together with the test compounds were determined. Commercial drugs and assayed compounds were tested using a mixture of PBS:EtOH (70 : 30).

For the compound `Cn1ccnc1-c1ccc(NCC(c2cccnc2)N2CCOCC2)nn1` (stereo not shown) [A], at G9a (first data set of Table S2), the remaining activity at 0.0001 µM worked out at 31%, the remaining activity at 0.001 µM is 27.8%, the remaining activity at 0.01 µM stood at 22.9% and the remaining activity at 0.1 µM is 22.8%. On G9a (first data set of Table S2), the remaining activity at 1 µM came to 14.8%, the remaining activity at 10 µM is 10% and the remaining activity at 50 µM is -0.4%. At G9a (second data set of Table S2), the remaining activity at 0.0001 µM is 32.1%, the remaining activity at 0.001 µM amounted to 30.6%, the remaining activity at 0.01 µM is 30.7% and the remaining activity at 0.1 µM is 22.7%. On G9a (second data set of Table S2), the remaining activity at 1 µM came out at 15.1%, the remaining activity at 10 µM was determined as 11.3% and the remaining activity at 50 µM was found to be 0.9%. Besides, on G9a (third data set of Table S2), the remaining activity at 0.0001 µM is 31.6%, the remaining activity at 0.001 µM stood at 29.2%, the remaining activity at 0.01 µM turned out to be 26.8% and the remaining activity at 0.1 µM came out at 22.7%. Further, on G9a (third data set of Table S2), the remaining activity at 1 µM was found to be 15%, the remaining activity at 10 µM was found to be 10.6% and the remaining activity at 50 µM was 0.3%.

Consider `CC(C)c1nccn1CCCNCc1cc(CN2CCCC2)cs1` [C], for which, at G9a (first data set of Table S2), the remaining activity at 0.0001 µM is 32.8%, the remaining activity at 0.001 µM amounted to 22.2%, the remaining activity at 0.01 µM was 15.1% and the remaining activity at 0.1 µM turned out to be 12%. Besides, at G9a (first data set of Table S2), the remaining activity at 1 µM was 11.5%, the remaining activity at 10 µM came out at 10.9% and the remaining activity at 50 µM was 10.7%. At G9a (second data set of Table S2), the remaining activity at 0.0001 µM stood at 32.7%, the remaining activity at 0.001 µM came out at 23.9%, the remaining activity at 0.01 µM was 19.5% and the remaining activity at 0.1 µM is 12.6%. On G9a (second data set of Table S2), the remaining activity at 1 µM is 12.4%, the remaining activity at 10 µM stood at 11.3% and the remaining activity at 50 µM came out at 10.9%. At G9a (third data set of Table S2), the remaining activity at 0.0001 µM amounted to 32.8%, the remaining activity at 0.001 µM is 23.1%, the remaining activity at 0.01 µM was 17.3% and the remaining activity at 0.1 µM came to 12.3%. Also, at G9a (third data set of Table S2), the remaining activity at 1 µM is 12%, the remaining activity at 10 µM was determined as 11.1% and the remaining activity at 50 µM was 10.8%. For the same compound, the IC50 on G9a came out at 1.7 nM. The “motor index dose‐response profile (in words)” value with C. elegans strain CL2006 was “ameliorating the paralysis presented by CL2006”.

With `c1ccc(OCCn2ccnc2)c(CN2CCN(c3ccncc3)CC2)c1` [Compound B], on G9a (first data set of Table S2), the remaining activity at 0.0001 µM is 9.3%, the remaining activity at 0.001 µM was found to be 8.7%, the remaining activity at 0.01 µM is 3.5% and the remaining activity at 0.1 µM was 2.1%. On G9a (first data set of Table S2), the remaining activity at 1 µM came to 1.2%, the remaining activity at 10 µM was 0.9% and the remaining activity at 50 µM was 0.2%. Also, at G9a (second data set of Table S2), the remaining activity at 0.0001 µM amounted to 10.8%, the remaining activity at 0.001 µM was found to be 11.6%, the remaining activity at 0.01 µM came out at 7.3% and the remaining activity at 0.1 µM was found to be 5.3%. For the same compound, at G9a (second data set of Table S2), the remaining activity at 1 µM worked out at 3.8%, the remaining activity at 10 µM was found to be 1.6% and the remaining activity at 50 µM came out at 0.6%. At G9a (third data set of Table S2), the remaining activity at 0.0001 µM was 10%, the remaining activity at 0.001 µM was found to be 10.1%, the remaining activity at 0.01 µM is 5.4% and the remaining activity at 0.1 µM is 3.7%. Moreover, on G9a (third data set of Table S2), the remaining activity at 1 µM turned out to be 2.5%, the remaining activity at 10 µM came out at 1.2% and the remaining activity at 50 µM is 0.4%. This compound also came in with an IC50 at G9a of 9.4 nM. The “motor index dose‐response profile (in words)” value in the data set on C. elegans strain CL2006 was “did not show an improved performance against the motor indexes of the control UNC0638”.

Regarding `Fc1ccccc1CN1CCC(CN(Cc2ccccn2)CC2CCCO2)CC1` (stereo not shown) [Compound D], at G9a (first data set of Table S2), the remaining activity at 0.0001 µM was found to be 33%, the remaining activity at 0.001 µM came to 29.3%, the remaining activity at 0.01 µM is 23% and the remaining activity at 0.1 µM was found to be 15.8%. At G9a (first data set of Table S2), the remaining activity at 1 µM turned out to be 11.5%, the remaining activity at 10 µM was 8.3% and the remaining activity at 50 µM was determined as 9.9%. At G9a (second data set of Table S2), the remaining activity at 0.0001 µM was determined as 33.8%, the remaining activity at 0.001 µM was 28.4%, the remaining activity at 0.01 µM turned out to be 21.5% and the remaining activity at 0.1 µM was found to be 15.9%. For the same compound, on G9a (second data set of Table S2), the remaining activity at 1 µM came out at 14.2%, the remaining activity at 10 µM is 10.3% and the remaining activity at 50 µM amounted to 12.1%. On G9a (third data set of Table S2), the remaining activity at 0.0001 µM is 33.4%, the remaining activity at 0.001 µM is 28.8%, the remaining activity at 0.01 µM came to 22.2% and the remaining activity at 0.1 µM was determined as 15.9%. At G9a (third data set of Table S2), the remaining activity at 1 µM amounted to 12.8%, the remaining activity at 10 µM was found to be 9.3% and the remaining activity at 50 µM came to 11%. Moreover, the midpoint of inhibition at G9a, the IC50, lay at 10.5 nM.

As to `CN1C(C(=O)Nc2ccccn2)=C(O)c2ccccc2S1(=O)=O` [Piroxicam, reference compound], the Papp in “PAMPA‐BBB assay” is 2 ± 0.08 ×10⁻⁶ cm/s.

For `CC(=O)[C@H]1CC[C@H]2[C@@H]3CCC4=CC(=O)CC[C@]4(C)[C@H]3CC[C@]12C` [Progesterone, reference compound], the Papp in “PAMPA‐BBB assay” was 14.7 ± 0.3 ×10⁻⁶ cm/s.
